Four molecules from patent US7482318B2, “Protein kinase domain of the large subunit of herpes simplex type 2 ribonucleotide reductase (icp 10pk) has anti-apoptotic activity” (priority 2000, dated 2009) can be followed below.

Like-named read-outs stand apart in the source and are kept apart here.

One test relates to JHL15 cells. The test is described as follows: TUNEL assay of apoptosis inducers in JHL15 cells (express PK negative p139TM). In kind it is cell-based, human. To be noted: JHL15 cells (printed RHL15 for STS); 24 hours with 250 nM STS or 300 nM D-Mann; ±SEM. How it is done:
(§1) Vero (African green monkey kidney cells) were obtained from ATCC and grown in Minimum Essential Medium (MEM) with 10% fetal bovine serum (FBS) and antibiotics. HEK293 (human embryonic kidney) cells were grown in Dulbecco's Modified Eagle's Medium (DMEM) with 10% FBS, 1 mM sodium pyruvate, 0.1 mM non-essential amino acids, and antibiotics. The cell line JHLA1 was established from HEK293 cells by transfection with an ICP10 expression vector and clone selection with G418, and the cell line JHL15 was similarly constructed using a vector which expresses the transmembrane deleted mutant of ICP10, p139™, which is PK negative, as described (Smith et al. 1994, Virology, 200:598-612).
(§2) Apoptosis was induced in HEI293 and JHLA1 cells using staurosporine (STS; Calbiochem, San Diego, Calif.) and D-manritol (D-Mann; Sigma, St. Louis, Mo.). […]
(§3) In situ analysis of apoptosis was performed using In Situ Cell Death Detection Kit (Roche Molecular Biochemicals, Indianapolis, Ind.) according to the manufacturer's instructions. […] Coverslips were mounted in PBS/glycerol, and cells were analyzed by fluorescence microscopy. […] Coverslips were mounted in PBS/glycerol and analyzed by light microscopy. Apoptotic cells (characterized by a dark precipitate) and non-apoptotic cells (diffuse, light staining) were counted in at least five randomly chose microscopic fields (containing at least 250 cells). […]

The test system of a further test is chromosomal DNA. As to the kind of experiment: DNA fragmentation assay (agarose gel DNA ladder). Type of test: cell-based, human. Particulars: 24 hours post-treatment. How it is done: (§4) Apoptosis was induced in HEI293 and JHLA1 cells using staurosporine (STS; Calbiochem, San Diego, Calif.) and D-manritol (D-Mann; Sigma, St. Louis, Mo.). Cells were plated in 6-well plates on glass coverslips or in flasks and allowed to grow for 24 hours at 37° C. in DMEM with 10% FBS, 1 mM sodium pyruvate, 0.1 mM non-essential amino acids, and antibiotics. At 24 hours after plating, media was removed by aspiration, and appropriate dilutions of apoptotic inducers (STS 250 nM, D-Mann 300 mM) were added to the cells for various times indicated in the text. All dilutions were made in cell growth media described above containing 1% FBS. At the indicated times after treatment, cells were processed for TUNEL or harvested for DNA extraction or Western blot assay.
HEK293, JHLA1 and JHL15 cells treated or not treated with apoptotic inducers were collected by gentle scraping at 24 hours post-treatment/infection. DNA was extracted using Puregene DNA Isolation Kit (Gentra Systems, Minneapolis, Minn.) according to the manufacturer's instructions. After spectrophotometrical quantitation, 5-10 micrograms of DNA per samples was separated on a 1.5% agarose gel stained with 0.1 microgram/ml ethidium bromide. Fragmented DNA was visualized by exposure to UV light and photographed using a Polaroid MP-4 land camera.
To determine whether ICP10PK blocks DNA fragmentation induced by STS and D-Mann, treated cells were analyzed using a DNA fragmentation assay which detects degradation of chromosomal DNA into oligonucleosomal fragments.

Another test deals with JHLA1 cells. The test is described as follows: TUNEL assay of apoptosis inducers in JHLA1 cells (express ICP10). Type of test: cell-based, human. Particulars: JHLA1 cells (printed JHLA15); 24 hours with 250 nM STS or 300 nM D-Mann; ±SEM. As to the method: as §1, §2, §3
In the next test the test system is HEK293 cells. The test is described as follows: TUNEL assay of apoptosis inducers in HEK293 cells. Type of test: cell-based, human. To be noted: 24 hours with 250 nM STS or 300 nM D-Mann, ±SEM, three experiments. As to the method: as §1, §2, §3
Test [1] relates to primary hippocampal cultures. Type of test: cell-based, rat.
Procedure: Briefly, minced fetal hippocampi were incubated with 0.25% trypsin for 30 minutes at 36° C. followed by dissociation of neurons in MEM supplemented with 10% FBS, 10% horse serum, 2 mM glutamine, and 20 microgram/ml DNase II, using a sterile Pasteur pipette. Neurons were plated at approximately 750,000 cells per 35 mm dish on glass coverslips pre-coated with poly-L-lysine and incubated at 36° C., 10% CO2. At 24 hours, media was replaced with MEM supplemented with 10% horse serum and 2 mM glutamine, and the cultures were returned to a 36 degrees C., 10% CO2 incubator.
In situ analysis of apoptosis was performed using In Situ Cell Death Detection Kit (Roche Molecular Biochemicals, Indianapolis, Ind.) according to the manufacturer's instructions. Briefly, infected/treated or non-infected/non-treated cells were fixed with 4% paraformaldehyde (PFA) in PBS (pH=7.4) for 30 minutes at room temperature followed by permiabilization of cells in 0.1% Triton X-100 (in 0.1% sodium citrate) for 2 minutes on ice. DNA breaks were labeled by addition of terminal deoxynucleotidyl transferase (TdT) and nucleotide mixture (containing dUTP-fluorescein conjugated) and incubation for 60 minutes at 37° C. Coverslips were mounted in PBS/glycerol, and cells were analyzed by fluorescence microscopy. After extensive washes in PBS, cells were incubated for 30 minutes at 37° C. with an anti-fluorescein antibody conjugated with alkaline phosphatase (AP). Chromogenic reaction was carried out by adding AP substrate solution (NBT/BCIP in 0.1 M Tris-HCl pH=9.5, 0.05 M MCl2, 0.1M NaCl, and 1 mM levamisole) and incubation for 10 minutes at room temperature. Coverslips were mounted in PBS/glycerol and analyzed by light microscopy. Apoptotic cells (characterized by a dark precipitate) and non-apoptotic cells (diffuse, light staining) were counted in at least five randomly chose microscopic fields (containing at least 250 cells). The percentage of mock-infected neurons undergoing apoptosis (between 4 and 5%) was subtracted from each average.
Cells were infected with 10 PFU/cell of HSV-2 or ICP10deltaPK and apoptosis was determined by TUNEL at 16 and 24 hours p.i. A total of 200-300 cells were counted in five randomly chosen microscopic fields and the mean percentage of TUNEL-positive cells was determined.
Another test deals with PARP. The test is described as follows: Western blot of PARP cleavage. In kind it is cell-based, human. To be noted: STS-treated. As to the method: (§5) Cells were collected by gentle scraping and centrifuged at 2,500 rpm for 5 minutes at 4° C. The dry pellet was stored at −80° C. until use. Cells were lysed with RIPA buffer (30 mM Tris-Hcl pH=7.4, […], 1% Nonidet P-40, 0/1% SDS, 0.5% sodium deoxycholate, 1 mM EDTA, 1 mM DTT, 2 mM MgCl2, 0.5 mM PMSF) supplemented with phosphatase and protease inhibitor cocktails (Sigma, St. Louis, Mo.) and sonicated for 1 minute at 25% output power using the Sonicator/Ultrasonic Processor (Misonix, Inc., Farmingdale, N.Y.). Total protein was determined by BCA (Pierce, Rockford, Ill.) and proteins were resolved by SDS-PAGE. Transfer of separated proteins to Schlecher and Schuell nitrocellulose membranes was performed overnight using an electroblotting apparatus. Non-specific binding was blocked by incubating blots for 1 hour at 37° C. in TN-T buffer (0.01 M Tris-Hcl pH=7.4, 0.15 M NaCl, 0.05% Tween 20) containing 1% bovine serum albumin (BSA). […]
To determine whether ICP10PK blocks PARP cleavage by caspase-3, a hallmark of caspase-3 dependent apoptosis, Western blot analysis using PARP antibody was performed on STS-treated HEK293, JHL15, and JHLA1 cells. A 116 kDa band consistent with the uncleaved PARP was detected in mock- and STS-treated cells.

For a further test, the system named is caspase-3p20. As to the kind of experiment: Immunohistochemistry for activated caspase-3 cleavage product (caspase-3p20) in HEK293, JHL15, JHLA1 cells. Type of test: cell-based, human. Particulars: STS-treated, ±SEM. An excerpt: FIG. 3B is a graph depicting inhibition of caspase activation by ICP10PK. HEK93, JHL15, and JHLA1 cells treated with STS (as described in FIG. 3A) were stained with caspase3p20 antibody (specific for the activated caspase-3 which is the large fragment of the pro-enzyme), and cells in five randomly chosen microscopic fields were counted. Results are expressed as mean percentage of positive cells±SEM (*=p<0.01 vs. HEK294; +=p<0.01 vs. JHL15 by Student test).
Previous reports have shown that STS-induced cell death is a caspase-dependent process (Jacobson et al., 1996, J. Cell. Biol., 133:1041-1051). […] To determine whether ICP10PK inhibits cleavage of pro-caspase-3, a central determinant of many apoptotic processes, Western blot analysis was performed on cell lysates obtained from STS-treated cells. […] The densitometric units were equal to 0.7 for both STS-treated HEK293 and JHL15 cells and 1.0 and 1.1 for DMSO-treated HEK293 and JHL15 cells, respectively). The levels of caspase-3p32 were similar in STS-treated and untreated JHLA1 cells (FIG. 3A, lanes 5 and 6, respectively). In this case, the densitometric units were equal to 1.2 for both treatments.

The subject of test [2] is procaspase-3 (caspase-3p32). The test is described as follows: Western blot of inactive procaspase-3 (caspase-3p32), densitometric scanning. Type of test: cell-based, human. How it is done:
as §4
as §5, with “(BSA). After washing with TN-T buffer, the blots were incubated for 2 hours at room temperature with the appropriate antibodies diluted in TN-T buffer containing 0.1% BSA. After three washes with TN-T buffer, the blots were incubated with Protein A-Peroxidase for 1 hour at room temperature.” for “(BSA).”

Another test relates to P-MAPK1/2. As to the kind of experiment: Immunoblot of P-MAPK1/2 (MAPK activation) in hippocampal neurons. In kind it is cell-based, rat. Particulars: 20 micromoles U0126. On the technique in general: Immunoblotting shows a protein as a band on a membrane.

Procedure for P-MAPK1/2: Cells were lysed with RIPA buffer (30 mM Tris-Hcl pH=7.4, 0.15 mM NaCl, 1% Nonidet P-40, 0/1% SDS, 0.5% sodium deoxycholate, 1 mM EDTA, 1 mM DTT, 2 mM MgCl2, 0.5 mM PMSF) supplemented with phosphatase and protease inhibitor cocktails (Sigma, St. Louis, Mo.) and sonicated for 1 minute at 25% output power using the Sonicator/Ultrasonic Processor (Misonix, Inc., Farmingdale, N.Y.). Total protein was determined by BCA (Pierce, Rockford, Ill.) and proteins were resolved by SDS-PAGE. Transfer of separated proteins to Schlecher and Schuell nitrocellulose membranes was performed overnight using an electroblotting apparatus. Non-specific binding was blocked by incubating blots for 1 hour at 37° C. in TN-T buffer (0.01 M Tris-Hcl pH=7.4, 0.15 M NaCl, 0.05% Tween 20) containing 1% bovine serum albumin (BSA). After washing with TN-T buffer, the blots were incubated for 2 hours at room temperature with the appropriate antibodies diluted in TN-T buffer containing 0.1% BSA. After three washes with TN-T buffer, the blots were incubated with Protein A-Peroxidase for 1 hour at room temperature. […]
Culture of hippocampal neurons were infected with HSV-2 or ICP10deltaPK at 10 PFU/cell and analyzed for MAPK activation by immunoblotting with antibodies specific for the unphosphorylated (MAPK) and phosphorylated (activated) MAPK species (P-MAPK1/2). […]

For `OC[C@@H](O)[C@@H](O)[C@H](O)[C@H](O)CO` [D-Mann, D-mannitol], the figures for the “percentage of apoptotic (TUNEL-positive) cells” value with JHL15 cells, with JHLA1 cells and in the test with HEK293 cells were 58±7%, 13±8% and 79±7.4%, respectively. In addition, the “DNA fragmentation (DNA ladder pattern)” value in the test with chromosomal DNA (HEK293 cells) is on record as “exhibited a DNA ladder pattern characteristic of apoptosis”; in the test with chromosomal DNA (JHLA1 cells), “did not exhibit DNA fragmentation”.

On to `O=c1cc(N2CCOCC2)oc2c(-c3ccccc3)cccc12` [LY294002], for which the “percentage of TUNEL-positive cells” value in test [1] (HSV-2 infected cultures, 100 micromolar LY294002) stood at 24.8±2.3; in [1] (mock-infected cultures, 100 micromolar LY294002 (non-treated 5±3)), 72±4.5.

Take `CN[C@@H]1C[C@H]2O[C@@](C)([C@@H]1OC)n1c3ccccc3c3c4c(c5c6ccccc6n2c5c31)C(=O)NC4` [STS, staurosporine]: the “percentage of apoptotic (TUNEL-positive) cells” value in the test on JHL15 cells worked out at 79±4.9%; in the test with JHLA1 cells, 5.8 ± 2.1%; in the test with HEK293 cells, 71±12.4%. Further, the “DNA fragmentation (DNA ladder pattern)” value is “exhibited a DNA ladder pattern characteristic of apoptosis” with chromosomal DNA (HEK293 cells) and “did not exhibit DNA fragmentation” with chromosomal DNA (JHLA1 cells). The “85 kDa PARP cleavage product” value with PARP (HEK293 cells) and in the test with PARP (JHL15 cells) was “detected” in each case. Also, the entries for the “mean percentage of cells positive for caspase-3p20” value in the test with caspase-3p20 (HEK293 cells), with caspase-3p20 (JHL15 cells) and in the test with caspase-3p20 (JHLA1 cells) were 40.5±0.9%, 36.4±7.6% and 9.3±0.1%, respectively. Further, the “levels of caspase-3p32” value is on record as 0.7 densitometric units in test [2] (HEK293 cells, STS 250 nM (DMSO control 1.0)); 0.7 densitometric units in test [2] (JHL15 cells, STS 250 nM (DMSO control 1.1)); 1.2 densitometric units in test [2] (JHLA1 cells, STS 250 nM (untreated 1.2)).

As to `N#CC(=C(/N)Sc1ccccc1N)/C(C#N)=C(\N)Sc1ccccc1N` [U0126], the “percentage of TUNEL-positive (apoptotic) cells” value is listed as 20±1.6% in [1] (HSV-2 infected cultures, 10 micromoles U0126) and 39.3±2.8% in test [1] (HSV-2 infected cultures, 20 micromoles U0126). For the same molecule, in the test on P-MAPK1/2, the “P-MAPK1/2 levels vs untreated HSV-2 infected cells” value is recorded as “significantly lower”.
